Measured values: patent US20250059175A1, “Mutant Pi3k-Alpha Inhibitors And Their Use As Pharmaceuticals” (Prelude Therapeutics Incorporated, priority 2023, published 2025)

Columns and labels:
[1] = tested on: phosphorylation of AKT on Ser473 (PI3K pathway) in T-47D (heterozygous PIK3CA H1047R) cell line; experiment: PI3K pathway activation assay (pAKT Ser473 HTRF), T-47D cells; format: cell-based; conditions: T-47D (heterozygous PIK3CA H1047R) cells, two hours of treatment, pAKT Ser473 HTRF; for IC50: Homo sapiens, T47D, 2 h, read-out: T47D pAKT IC50
Experimental: (§1) The inhibitory activity of the compounds of the disclosure was evaluated by measuring phosphorylation of AKT on Ser473 as a readout of the PI3K pathway using HTRF (CisBio catalog number: 64AKSPE). These studies were conducted in the T-47D (heterozygous PIK3CA H1047R) and SKBR3 (PIK3CA WT) cell lines. Cells were maintained in a 37° C. incubator at 5% CO2 in the following media: T-47D: RPMI 1640, ATCC© Modification (Gibco, A10491-01) supplemented with 10% v/v FBS (Gibco, 26140-079), 1% penicillin streptomycin (Gibco, 15140-122), and 7.4 ug/mL insulin (MilliporeSigma, I9278); SKBR3: McCoy's 5a (Modified) Medium (Gibco, 16600-082) supplemented with 10% v/v FBS (Gibco, 26140-079). Cells were seeded in 384-well plates at a density of 4,000 cells/well. Compounds dissolved in DMSO were added using a digital dispense (D300E, Tecan) 10-point serial dilution. After two hours of treatment, cells were lysed for thirty minutes and then incubated with detection reagents per HTRF kit material and manufacturer's instructions. Fluorescence signal was measured with a multimode plate reader (Envision 2105, Perkin Elmer). Fluorescent signal was normalized to background and DMSO controls to obtain percent inhibition/activity for each compound.

[2] = tested on: phosphorylation of AKT on Ser473 (PI3K pathway) in SKBR3 (PIK3CA WT) cell line; experiment: PI3K pathway activation assay (pAKT Ser473 HTRF), SKBR3 cells; format: cell-based; conditions: Homo sapiens, SK-BR-3, 2 h, two hours of treatment
Experimental: as §1

IC50 [1] [nM]	IC50 [2] [nM]	T47D pAKT IC50 [1]	Compound
< 100	1000 to 10000	–	C[C@@H](Nc1ccc(Cl)nc1C(=O)O)c1cc(F)cc(N2C(=O)OC[C@@H]2Cc2ccccc2F)c1 [Example 61, 6-Chloro-3-(((R)-1-(3-fluoro-5-((S)-4-(2-fluorobenzyl)-2-oxooxazolidin-3-yl)phenyl)ethyl)amino)picolinic acid]
< 100	> 10000	–	Cc1cc([C@@H](C)Nc2ccc(Cl)nc2C(=O)O)nc(N2C(=O)OC[C@@H]2Cc2ccc(F)cc2F)c1 [Example 26, 6-Chloro-3-(((R)-1-(6-((S)-4-(2,4-difluorobenzyl)-2-oxooxazolidin-3-yl)-4-methylpyridin-2-yl)ethyl)amino)picolinic acid]
< 100	> 10000	–	Cc1cc([C@@H](C)Nc2ccc(Cl)nc2C(=O)O)nc(N2C(=O)OC[C@@H]2Cc2ccc(C#N)cc2F)c1 [Example 49, 6-Chloro-3-(((R)-1-(6-((S)-4-(4-cyano-2-fluorobenzyl)-2-oxooxazolidin-3-yl)-4-methylpyridin-2-yl)ethyl)amino)picolinic acid]
< 100	> 10000	–	Cc1cc([C@@H](C)Nc2ccc(Cl)nc2C(=O)O)nc(N2C(=O)OC[C@@H]2Cc2ccc(C(F)(F)F)cc2)c1 [Example 23, 6-Chloro-3-(((R)-1-(4-methyl-6-((S)-2-oxo-4-(4-(trifluoromethyl)benzyl)oxazolidin-3-yl)pyridin-2-yl)ethyl)amino)picolinic acid]
< 100	> 10000	–	Cc1cc(C(C)Nc2ccc(F)nc2C(=O)O)nc(N2C(=O)OC[C@@H]2Cc2ccccc2)c1 (single isomer, unassigned) [Example 11]

The remaining lines, values behind:

Compound	IC50 [1] [nM]	IC50 [2] [nM]	T47D pAKT IC50 [1]
Cc1cc([C@@H](C)Nc2ccc(Cl)nc2C(=O)O)nc(N2C(=O)OC[C@@H]2Cc2cccc(C)c2F)c1 [Example 20, 6-Chloro-3-(((R)-1-(6-((S)-4-(2-fluoro-3-methylbenzyl)-2-oxooxazolidin-3-yl)-4-methylpyridin-2-yl)ethyl)amino)picolinic acid]	< 100	> 10000	–
Cc1cc([C@@H](C)Nc2ccc(Cl)nc2C(=O)O)nc(N2C(=O)N(C)C[C@@H]2Cc2ccccc2)c1 [Example 60, 3-(((R)-1-(6-((S)-5-Benzyl-3-methyl-2-oxoimidazolidin-1-yl)-4-methylpyridin-2-yl)ethyl)amino)-6-chloropicolinic acid]	< 100	1000 to 10000	–
Cc1cc([C@@H](C)Nc2ccc(Cl)nc2C(=O)O)nc(N2C(=O)OC[C@@H]2Cc2cccc(C#N)c2)c1 [Example 48, 6-Chloro-3-(((R)-1-(6-((S)-4-(3-cyanobenzyl)-2-oxooxazolidin-3-yl)-4-methylpyridin-2-yl)ethyl)amino)picolinic acid]	< 100	> 10000	–
COc1ccc(C[C@H]2COC(=O)N2c2cc(C)cc([C@@H](C)Nc3ccc(Cl)nc3C(=O)O)n2)c(F)c1 [Example 27, 6-Chloro-3-(((R)-1-(6-((S)-4-(2-fluoro-4-methoxybenzyl)-2-oxooxazolidin-3-yl)-4-methylpyridin-2-yl)ethyl)amino)picolinic acid]	< 100	> 10000	–
Cc1cc(C(C)Nc2ccc(Cl)nc2C(=O)O)nc(N2C(=O)OC[C@@H]2Cc2ccccc2)c1 (single isomer, unassigned) [Example 12]	–	1000 to 10000	++ ++
Cc1cc(C(C)Nc2ccc(Br)nc2C(=O)O)nc(N2C(=O)OC[C@@H]2Cc2ccccc2)c1 (single isomer, unassigned) [Example 18]	< 100	> 10000	–
